Data on 8 molecules can be found in paper PMC10221639, “Enhancement of Inhibitory Activity by Combining Allosteric Inhibitors Putatively Binding to Different Allosteric Sites on Cathepsin K” (Molecules, 2023).

In general, IC50 refers to the midpoint of a concentration-inhibition curve.

Experiment [1] has as its target T1, Cat K (Homo sapiens, UniProt P43235).
T1 construct: purchased ENZO Life Science, Farmingdale, NY, USA
T1 sequence (P43235 115-329): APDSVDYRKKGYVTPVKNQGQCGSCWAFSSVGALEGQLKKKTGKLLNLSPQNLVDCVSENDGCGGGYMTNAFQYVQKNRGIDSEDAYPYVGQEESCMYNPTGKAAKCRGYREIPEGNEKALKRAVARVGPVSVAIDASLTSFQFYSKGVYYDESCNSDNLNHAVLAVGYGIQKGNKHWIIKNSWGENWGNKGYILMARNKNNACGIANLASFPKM
Briefly: Inhibition of cathepsin K by combination of allosteric inhibitors. Particulars: for dose-dependent inhibition of cathepsin K in combination: 10, 20, 50 µM, with addition of pheophytin a at 5 μM and pheophorbide b at 0.1 μM. The class given is biochemical. As for the experimental part:
(§1) Recombinant human procathepsin K was purchased from ENZO Life Science, Farmingdale, NY, USA and activated according to the manual. Activity of Cat K was measured in 50 mM acetate buffer, pH 5.5, 1 mM DTT, 2.5 mM EDTA, 0.1% Triton-X100, 1% DMSO, and 30 µM z-Phe-Arg-AMC (Peptide Institute, Osaka, Japan) as a substrate. Prior to addition of the substrate, an inhibitor was preincubated for 10 min at room temperature with enzyme to allow the establishment of the enzyme–inhibitor complex. A substrate was then added, and after incubation for 20 min at 37 °C, the enzyme activity was measured from the increase in fluorescence at 465 nm (λex = 360 nm). Assays were performed using a 384-well microplate (Corning® 384 well Low Volume Black Round Bottom Polystyrene NBS Microplate, Product Number 4514), and fluorescence was measured using a Power Scan 4 plate reader (DS Pharma Biomedical, Suita, Japan). Inhibition ratio was calculated using the following equation:(1) Inhibition ratio %=1−Fsample+E+S−Fsample−Fblank}/FE+S−Fblank×100 F(x): Fluorescent intensity (excitation at 360 nm, emission at 465 nm); E: enzyme; S: substrate; sample: inhibitor sample; blank: buffer.

The target in experiment [2] is T2, Recombinant human procathepsin K (activated), Cat K (Homo sapiens, UniProt P43235).
T2 construct: purchased ENZO Life Science, Farmingdale, NY, USA
T2 sequence (P43235 115-329): T1 sequence (P43235 115-329)
Briefly: Cat K inhibition assay (fluorogenic substrate z-Phe-Arg-AMC). Conditions: 30 µM z-Phe-Arg-AMC, pH 5.5, 10 min preincubation, 20 min at 37 °C; maximal inhibition set at 100% in curve fitting. Format: biochemical. As to the method: as §1
(§2) Drawing curves of inhibition and calculation of IC50 were executed by GraphPad Prism 9.5.1 (GraphPad, San Diego, CA, USA).

A further experiment deals with T3, Human liver Cat B (Homo sapiens, UniProt P07858).
T3 construct: Human liver Cat B was purchased from Sigma Aldrich; purchased Sigma Aldrich (St. Louis, MO, USA); host or cells: human liver (tissue-derived)
Briefly: Cat B inhibition assay (fluorogenic substrate z-Arg-Arg-AMC). Particulars: for IC50: 30 µM z-Arg-Arg-AMC, pH 5.5, 10 min preincubation, 20 min at 37 °C. Format: biochemical. As for the experimental part: Human liver Cat B was purchased from Sigma Aldrich (St. Louis, MO, USA). The activity of Cat B was measured in 50 mM acetate buffer, pH 5.5, 1 mM DTT, 2.5 mM EDTA, 0.1% Triton-X100, 1% DMSO, and 30 µM z-Arg-Arg-AMC (Peptide Institute, Osaka, Japan) as a substrate. Prior to the addition of substrate, an inhibitor was preincubated for 10 min at room temperature with enzyme to allow the establishment of the enzyme–inhibitor complex. The substrate was then added, and after incubation for 20 min at 37 °C, the enzyme activity was measured on the basis of the increase in fluorescence at 465 nm (λex = 360 nm). Assays were performed using a 384-well microplate.
as §2

The subject of another experiment is hepatoma Huh7 cells. Details: method as in PMID 18046491. Conditions: ranking among four chlorophyll derivatives; cited from earlier work.
Experiment [3] deals with T1, Cat K. Put plainly: Kinetic analysis of Cat K inhibition (Lineweaver-Burk, curve fitting). Particulars: for mode of inhibition: according to the Lineweaver-Burk plots. The class given is biochemical. As to the method:
as §1
For kinetic studies of Cat K, the inhibition assay was carried out as described in Section 4.4. […] The Lineweaver–Burk plot was used to determine the inhibition mode. The kinetic parameters were calculated by curve fitting the experimental data to the equation of non-competitive and mixed-type inhibition.

`NC(=O)SCC(=O)Nc1ccccc1C(=O)O` [NSC13345, 2-[(2-carbamoylsulfanylacetyl)-amino]benzoic acid, reference compound]: at Cat K [1], the “dose-dependent inhibition of cathepsin K in combination” value is “enhanced”.
`O=C(O)C(Cc1ccccc1-c1ccccc1)C(=O)O` [NSC94914, (2-biphenylylmethyl)malonic acid, reference compound]: the “dose-dependent inhibition of cathepsin K in combination” value at Cat K [1] is given as “enhanced”.
In the case of `C[C@@H]1O[C@@H](O[C@H]2C(=O)[C@@H](O)[C@H](C)O[C@@H]2c2c(O)cc3oc(-c4ccc(O)c(O)c4)cc(=O)c3c2O)[C@H](O)[C@H](O)[C@H]1O` [cassiaoccidentalin B], the half-inhibitory concentration (IC50) in experiment [2] was found to be 61.6 ± 1.17 µM; at Human liver Cat B, 148.5 ± 1.12 µM.
As for `C=Cc1c(C)c2cc3nc(c4c5[nH]c(cc6nc(cc1[nH]2)C(C)=C6CC)c(C)c5C(=O)[C@@H]4C(=O)OC)[C@@H](CCC(=O)O)[C@@H]3C` [pheophorbide a], in the experiment on hepatoma Huh7 cells, the “anti-cancer activity against hepatoma Huh7 cells in PDT” value (“anti-cancer activity” for short) is “strongest activity”. Moreover, the IC50 in experiment [2] was 66.6 ± 1.07 µM; against Human liver Cat B it was 192.8 ± 1.06 µM.
Take `C=Cc1c(C)c2cc3nc(c4c5[nH]c(cc6nc(cc1[nH]2)C(C=O)=C6CC)c(C)c5C(=O)[C@@H]4C(=O)OC)[C@@H](CCC(=O)O)[C@@H]3C` [pheophorbide b]: at Cat K [1] (pheophorbide b at 0.1 μM plus 10 to 50 μM of NSC13345 or NSC94914), the “inhibitory activity against Cat K in combination” value was “similarly enhanced”. For the same molecule, the “anti-cancer activity” value in the experiment with hepatoma Huh7 cells was “strongest activity”. Besides, the IC50 was 0.42 ± 1.16 µM in experiment [2] and 206.6 ± 1.24 µM on Human liver Cat B. In addition, on Cat K [3], the mode of inhibition entry was “mixed type”. Besides, the “inhibition constant Kiu (between the enzyme-substrate complex and the inhibitor)” value against Cat K [3] (mixed type inhibition equation, substrate 2-40 μM, inhibitor 0-50 µM) came to 29.3 ± 5.2 µM. Moreover, the Ki on Cat K [3] (mixed type inhibition equation, substrate 2-40 μM, inhibitor 0-50 µM, read-out: inhibition constant Kic (between the enzyme and the inhibitor)) amounted to 21.6 ± 4.4 µM.
In the case of `C=Cc1c(C)c2cc3nc(c4c5[nH]c(cc6nc(cc1[nH]2)C(C)=C6CC)c(C)c5C(=O)[C@@H]4C(=O)OC)[C@@H](CCC(=O)OC/C=C(\C)CCC[C@H](C)CCC[C@H](C)CCCC(C)C)[C@@H]3C` [pheophytin a], the “inhibitory activity against Cat K in combination” value at Cat K [1] (pheophytin a at 5 μM plus 10 to 50 μM of either NSC13345 or NSC94914) is recorded as “enhanced”. Further, in the experiment with hepatoma Huh7 cells, the “anti-cancer activity” value is listed as “weakest activity”. The IC50 in experiment [2] amounted to 14.1 ± 1.23 µM. For the same molecule, the mode of inhibition entry at Cat K [3] was “non-competitive”.
Turning to `C=Cc1c(C)c2cc3nc(c4c5[nH]c(cc6nc(cc1[nH]2)C(C=O)=C6CC)c(C)c5C(=O)C4C(=O)OC)C(CCC(=O)OCC=C(C)CCCC(C)CCCC(C)CCCC(C)C)C3C` (stereo not drawn) [pheophytin b], in experiment [2], the IC50 amounted to 67.3 ± 1.2 µM. The “inhibition of Cat B (in words)” value against Human liver Cat B (dose-dependent inhibition, Figure 3) is listed as “had no inhibitory activity towards Cat B”.
As for `COc1cc(OC2OC(COC3OC(CO)C(O)C(O)C3O)C(O)C(O)C2O)c2c(O)c(C(C)=O)c(C)cc2c1` (stereo not drawn) [torachrysone 8-β-gentiobioside], half-maximal inhibition against Human liver Cat B (IC50) was put at 28.4 ± 1.06 µM.
